Columns and labels:
[1] = Binding affinity for Cyclin-dependent kinase 4-cyclin E
[2] = target: Cyclin-dependent kinase 4/cyclin D1 (Homo sapiens, UniProt P11802); experiment: Binding affinity for Cyclin-dependent kinase 4-cyclin D1; type: protein-complex assay
[3] = system: HCT-116; experiment: Inhibition of HCT116 cellular proliferation; type: functional, cell-based; details: Homo sapiens
[4] = system: HCT-116; experiment: Inhibition of HCT116 cell proliferation in the presence of human serum albumin and alpha-1-acidglycoprotein; type: functional, cell-based
[5] = system: AG1523; experiment: Inhibition of proliferation AG1523 (human fibroblast) cell line.; type: functional, cell-based
[6] = system: HCT-116; experiment: Inhibition of cellular proliferation of HCT116 cell line in the presence of human serum albumin and alpha-1-acidglycoprotein; type: functional, cell-based
[7] = system: AG1523; experiment: Inhibition of AG1523 (arrested) cell proliferation; type: functional, cell-based; details: Homo sapiens
[8] = system: B16; experiment: Inhibition of B16-F1 cell proliferation; type: functional, cell-based; details: Mus musculus
[9] = target: Cyclin-dependent kinase 2/cyclin A (Homo sapiens, UniProt P24941); experiment: Inhibition of Cyclin-dependent kinase 2-cyclin A; type: protein-complex assay
[10] = target: Cyclin-dependent kinase 1/cyclin B (Homo sapiens, UniProt P06493); experiment: Inhibition of cyclin-dependent kinase 1-cyclin B; type: protein-complex assay
[11] = system: NCI-H1299; experiment: Inhibition of H1299 cell proliferation; type: functional, cell-based; details: Homo sapiens
[12] = system: HT-1080; experiment: Inhibition of HT1080 cell proliferation; type: functional, cell-based; details: Homo sapiens
[13] = system: HMEC; experiment: Inhibition of HMEC cell proliferation; type: functional, cell-based; details: Homo sapiens
[14] = system: L1210; experiment: Inhibition of L1210 cell proliferation; type: functional, cell-based; details: Mus musculus
[15] = system: MCF7; experiment: Inhibition of MCF-7 cell proliferation; type: functional, cell-based; details: Homo sapiens
[16] = system: MIA PaCa-2; experiment: Inhibition of MiaPaCa2 cell proliferation; type: functional, cell-based; details: Homo sapiens
[17] = system: NCI-H460; experiment: Inhibition of NCI-H460 cell proliferation; type: functional, cell-based; details: Homo sapiens
[18] = system: NCI-H358; experiment: Inhibition of NCI-H358 cell proliferation; type: functional, cell-based; details: Homo sapiens
[19] = system: PC-3; experiment: Inhibition of PC3 cell proliferation; type: functional, cell-based; details: Homo sapiens
[20] = target: cAMP-dependent protein kinase (PKA) (Homo sapiens, UniProt P22694+P17612+P22612); experiment: Inhibition of protein kinase A; type: protein assay
[21] = target: Tyrosine-protein kinase ABL1 (Homo sapiens, UniProt P00519); experiment: Inhibition of c-Abl tyrosine kinase
[22] = system: HT-29; experiment: Inhibition of HT-29 cell proliferation; type: functional, cell-based; details: Homo sapiens
[23] = system: SKUT-1A; experiment: Inhibition of Skut 1A cell proliferation; type: functional, cell-based; details: Homo sapiens

Cyclin-dependent kinase 4/cyclin D1, sequence (P11802 whole entry): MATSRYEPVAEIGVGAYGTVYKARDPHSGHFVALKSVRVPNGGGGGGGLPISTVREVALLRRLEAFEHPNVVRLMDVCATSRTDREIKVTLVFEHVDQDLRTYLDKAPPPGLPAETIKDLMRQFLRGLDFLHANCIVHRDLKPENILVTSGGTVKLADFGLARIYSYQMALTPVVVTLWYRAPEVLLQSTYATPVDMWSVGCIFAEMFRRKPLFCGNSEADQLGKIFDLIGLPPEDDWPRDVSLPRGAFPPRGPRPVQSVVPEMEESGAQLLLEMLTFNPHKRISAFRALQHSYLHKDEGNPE
Cyclin-dependent kinase 4/cyclin D1, sequence (P24385 whole entry, further chain): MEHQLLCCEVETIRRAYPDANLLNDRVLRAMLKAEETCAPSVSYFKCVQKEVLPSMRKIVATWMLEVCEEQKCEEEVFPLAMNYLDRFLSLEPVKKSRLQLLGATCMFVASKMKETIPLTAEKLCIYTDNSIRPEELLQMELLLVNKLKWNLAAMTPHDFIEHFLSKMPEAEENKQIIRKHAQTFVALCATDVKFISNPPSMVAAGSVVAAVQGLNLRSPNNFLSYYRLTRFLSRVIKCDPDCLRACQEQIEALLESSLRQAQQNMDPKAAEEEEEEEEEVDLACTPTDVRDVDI
Tyrosine-protein kinase ABL1, sequence (P00519 whole entry): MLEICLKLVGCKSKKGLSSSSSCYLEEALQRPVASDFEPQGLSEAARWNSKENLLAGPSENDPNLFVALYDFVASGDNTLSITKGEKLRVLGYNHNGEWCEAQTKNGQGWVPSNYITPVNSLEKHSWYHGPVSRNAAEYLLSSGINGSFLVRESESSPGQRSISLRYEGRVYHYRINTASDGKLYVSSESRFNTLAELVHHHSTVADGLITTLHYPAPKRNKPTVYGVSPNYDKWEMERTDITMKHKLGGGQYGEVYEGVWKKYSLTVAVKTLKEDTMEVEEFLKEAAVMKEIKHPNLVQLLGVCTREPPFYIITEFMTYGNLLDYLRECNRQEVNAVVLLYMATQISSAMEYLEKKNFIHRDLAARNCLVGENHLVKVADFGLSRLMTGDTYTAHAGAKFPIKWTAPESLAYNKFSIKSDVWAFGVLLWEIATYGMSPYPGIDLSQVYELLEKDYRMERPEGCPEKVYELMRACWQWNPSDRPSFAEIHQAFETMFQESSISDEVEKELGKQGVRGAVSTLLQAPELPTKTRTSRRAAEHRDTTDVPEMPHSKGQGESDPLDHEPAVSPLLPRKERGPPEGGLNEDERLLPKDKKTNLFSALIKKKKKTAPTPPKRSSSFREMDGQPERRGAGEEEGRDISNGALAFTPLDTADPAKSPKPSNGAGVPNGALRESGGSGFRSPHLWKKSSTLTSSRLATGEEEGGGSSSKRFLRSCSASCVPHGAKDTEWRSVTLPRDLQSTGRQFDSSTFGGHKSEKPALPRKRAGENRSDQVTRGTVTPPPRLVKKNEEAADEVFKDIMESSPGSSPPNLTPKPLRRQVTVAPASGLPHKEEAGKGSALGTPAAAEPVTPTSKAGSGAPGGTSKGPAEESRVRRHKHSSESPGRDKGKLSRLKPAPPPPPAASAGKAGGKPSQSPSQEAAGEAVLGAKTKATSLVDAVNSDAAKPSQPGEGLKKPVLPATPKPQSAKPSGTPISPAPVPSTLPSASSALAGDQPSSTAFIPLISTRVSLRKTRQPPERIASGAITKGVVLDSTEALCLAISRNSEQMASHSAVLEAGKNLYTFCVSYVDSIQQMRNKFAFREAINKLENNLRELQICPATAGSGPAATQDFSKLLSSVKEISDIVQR

| Compound | IC50 [1] [nM] | IC50 [2] [nM] | IC50 [3] [nM] | IC50 [5] [nM] | other results |
| --- | --- | --- | --- | --- | --- |
| CN(C)CCNC(=O)c1ccc(-c2[nH]nc3c2C(=O)c2c(NC(=O)NN4CCOCC4)cccc2-3)s1 | 21 | 15 | > 800 |  |  |
| CCN1CCCN(C(=O)c2ccc(-c3[nH]nc4c3C(=O)c3c(NC(=O)NN5CCOCC5)cccc3-4)s2)CC1 | 14 | 7 | 33 |  | IC50 [4]: 7100 nM |
| Cc1nc(C)c(-c2[nH]nc3c2C(=O)c2c(NC(=O)NN4CCOCC4)cccc2-3)s1 | 9 | > 370 | 8 | > 19000 | IC50 [4]: 500 nM |
| O=C(Nc1cccc2c1C(=O)c1c(-c3ccc(C(=O)N4CCCNCC4)s3)n[nH]c1-2)NN1CCOCC1 | 6 | 3 | 195 |  | IC50 [4]: > 19700 nM |
| CN(C)NC(=O)Nc1cccc2c1C(=O)c1c(-c3ccco3)n[nH]c1-2 | 26 | 635 | 160 |  |  |
| O=C(Nc1cccc2c1C(=O)c1c(-c3ccc(C(=O)N4CCCCC4)s3)n[nH]c1-2)NN1CCOCC1 | 25 | 22 | 52 |  | IC50 [6]: 16800 nM |
| CN(C)NC(=O)Nc1cccc2c1C(=O)c1c(-c3ccsc3)n[nH]c1-2 | 24 | 107 | 68 | 605 |  |
| Cc1cc(-c2n[nH]c3c2C(=O)c2c(NC(=O)NN4CCN(C)CC4)cccc2-3)c(C)s1 | 12 | 90 | 24 | 205 |  |
| CNC1CCN(C(=O)c2ccc(-c3[nH]nc4c3C(=O)c3c(NC(=O)NN5CCOCC5)cccc3-4)s2)C1 (configuration not stated) | 11 | 5 | 230 |  | IC50 [4]: 8500 nM |
| CN(C)NC(=O)Nc1cccc2c1C(=O)c1c(-c3csc(Cl)c3)n[nH]c1-2 | 7 | 21 | 64 | 615 |  |
| Cc1cc(-c2n[nH]c3c2C(=O)c2c(NC(=O)NN(C)C)cccc2-3)c(C)s1 | 26 | 515 | 110 | 1500 |  |
| NC1CCN(C(=O)c2ccc(-c3[nH]nc4c3C(=O)c3c(NC(=O)NN5CCOCC5)cccc3-4)s2)C1 (configuration not stated) | 39 | 35 | > 800 |  |  |
| O=C(Nc1cccc2c1C(=O)c1c-2n[nH]c1-c1csc(Cl)c1)NN1CCOCC1 | 10 | 7 | 35 | 385 |  |
| CCOC(=O)c1ccc(-c2[nH]nc3c2C(=O)c2c(NC(=O)NN4CCN(C)CC4)cccc2-3)s1 | 36 | 30 | 46 |  |  |
| CN1CCN(C(=O)c2ccc(-c3[nH]nc4c3C(=O)c3c(NC(=O)NN5CCOCC5)cccc3-4)s2)CC1 | 32 | 10 | 110 | 485 | IC50 [6]: 9940 nM |
| CN(C)NC(=O)Nc1cccc2c1C(=O)c1c(-c3cccs3)n[nH]c1-2 | 36 | 340 | 75 | 905 |  |
| CN(C)C1CCCN(C(=O)c2ccc(-c3[nH]nc4c3C(=O)c3c(NC(=O)NN5CCOCC5)cccc3-4)s2)C1 (configuration not stated) | 24 | 13 | 188 |  | IC50 [6]: 11800 nM |

| Compound | IC50 [1] [nM] | IC50 [2] [nM] | IC50 [3] [nM] | IC50 [5] [nM] | other results |
| --- | --- | --- | --- | --- | --- |
| Cc1ccc(-c2n[nH]c3c2C(=O)c2c(NC(=O)NN(C)C)cccc2-3)s1 | 25 | 81 | 48 | 640 |  |
| CCOC(=O)c1ccc(-c2[nH]nc3c2C(=O)c2c(NC(=O)NN(C)C)cccc2-3)s1 | 28 | 185 | 380 | 2800 |  |
| CCN1CCN(C(=O)c2ccc(-c3[nH]nc4c3C(=O)c3c(NC(=O)NN5CCOCC5)cccc3-4)s2)CC1 | 19 | 5 | 63 |  | IC50 [6]: 14300 nM |
| O=C(Nc1cccc2c1C(=O)c1c(-c3ccc(C(=O)NCCN4CCOCC4)s3)n[nH]c1-2)NN1CCOCC1 | 51 | 86 | 860 |  |  |
| CCOC(=O)c1ccc(-c2[nH]nc3c2C(=O)c2c(NC(=O)NN4CCOCC4)cccc2-3)s1 | 31 | 30 | 110 | > 17000 | IC50 [4]: 3200 nM |
| Cc1nc(C)c(-c2n[nH]c3c2C(=O)c2c(NC(=O)NN(C)C)cccc2-3)s1 | 4 | 150 |  |  |  |
| Cc1cc(-c2[nH]nc3c2C(=O)c2c(NC(=O)NN4CCOCC4)cccc2-3)c(C)s1 | < 8 | 125 | 25 | 345 |  |
| CN(C)C1CCN(C(=O)c2ccc(-c3[nH]nc4c3C(=O)c3c(NC(=O)NN5CCOCC5)cccc3-4)s2)C1 (configuration not stated) | 44 | 12 | 64 | 330 | IC50 [4]: 2540 nM |
| O=C(Nc1cccc2c1C(=O)c1c(-c3ccc(C(=O)NCCN4CCCC4)s3)n[nH]c1-2)NN1CCOCC1 | 25 | 23 | 475 | 680 |  |
| CN(C)C1CCN(C(=O)c2ccc(-c3[nH]nc4c3C(=O)c3c(NC(=O)NN5CCOCC5)cccc3-4)s2)CC1 | 23 | 8 | 210 | 1000 | IC50 [6]: > 15100 nM |
| Cc1nc(C)c(-c2[nH]nc3c2C(=O)c2c(NC(=O)NN4CCN(C)CC4)cccc2-3)s1 |  | 46 | 14 | > 21000 | IC50 [7]: > 21000 nM; IC50 [8]: 160 nM; IC50 [9]: 13 nM; IC50 [10]: 6 nM; IC50 [4]: 260 nM; IC50 [11]: 12 nM; IC50 [12]: 30 nM; IC50 [13]: 55 nM; IC50 [14]: 105 nM; IC50 [15]: 23 nM; IC50 [16]: 26 nM; IC50 [17]: 104 nM; IC50 [18]: 18 nM; IC50 [19]: 125 nM; IC50 [20]: > 42000 nM; IC50 [21]: 17600 nM; IC50 [22]: 87 nM; IC50 [23]: 25 nM |
| COc1ccc(-c2[nH]nc3c2C(=O)c2c(NC(=O)NN(C)C)cccc2-3)s1 | 32 | 84 | 130 | 1550 |  |
| O=C(Nc1cccc2c1C(=O)c1c(-c3ccc(C(=O)NCCN4CCCCC4)s3)n[nH]c1-2)NN1CCOCC1 | 31 | 22 | 20 | 255 |  |
| CN1CCCN(C(=O)c2ccc(-c3[nH]nc4c3C(=O)c3c(NC(=O)NN5CCOCC5)cccc3-4)s2)CC1 | 15 | 4 | 19 | 63 | IC50 [4]: 870 nM |
| O=C(Nc1cccc2c1C(=O)c1c(-c3ccc(C(=O)N4CCCCCC4)s3)n[nH]c1-2)NN1CCOCC1 | 23 | 17 | 53 |  | IC50 [4]: 8320 nM |
| O=C(Nc1cccc2c1C(=O)c1c(-c3ccc(C(=O)N4CCNCC4)s3)n[nH]c1-2)NN1CCOCC1 | 38 | 4 | 700 |  | IC50 [6]: 15400 nM |
| Cc1ccc(-c2[nH]nc3c2C(=O)c2c(NC(=O)NN4CCOCC4)cccc2-3)s1 | 10 | 23 | 25 | 285 |  |
